In the test the target is human orexin 2 receptor (Homo sapiens (Human), UniProt O43614). Briefly: Human orexin 2 receptor Ca2+ mobilization assay (FLIPR, PFSK cells, orexin B 100 nM). Type of test: cell-based. To be noted: modified Cheng-Prusoff correction, read-out: OR 2 Kb. How it is done:
Human Orexin 2 Receptor Ca^2+ Mobilization Assay
Cells were seeded on to 96-well Packard viewplates at a density of 50,000 cells/well and incubated overnight at 37° C., 5% CO2. The cells were dye-loaded with 4 μM Ca^2+ dye Fluo-3AM in serum-free DMEM/F-12 with 2.5 mM probenecid and incubated at 37° C., 5% CO2 for one hour. Cells were pre-incubated with compounds (diluted in DMEM/F-12) for 30 minutes before agonist (orexin B, 100 nM) stimulation. Ligand-induced Ca^2+ release was measured using a Fluorometric Imaging Plate Reader (FLIPR, Molecular Devices, Sunnyvale, Calif.). Functional responses were measured as peak fluorescence intensity minus basal. The concentration of agonist that produced a half-maximal response is represented by the EC50 value. Antagonistic potency values were converted to apparent pKB values using a modified Cheng-Prusoff correction. Apparent pKB=−log IC50/1+[conc agonist/EC50]. Data are expressed as mean±S.E.M, the designation of NT means not tested.
For orientation: A change in cytosolic calcium serves as a functional read-out for many receptors and channels.

Molecules are shown by their SMILES.

Sequence of human orexin 2 receptor (O43614 whole entry): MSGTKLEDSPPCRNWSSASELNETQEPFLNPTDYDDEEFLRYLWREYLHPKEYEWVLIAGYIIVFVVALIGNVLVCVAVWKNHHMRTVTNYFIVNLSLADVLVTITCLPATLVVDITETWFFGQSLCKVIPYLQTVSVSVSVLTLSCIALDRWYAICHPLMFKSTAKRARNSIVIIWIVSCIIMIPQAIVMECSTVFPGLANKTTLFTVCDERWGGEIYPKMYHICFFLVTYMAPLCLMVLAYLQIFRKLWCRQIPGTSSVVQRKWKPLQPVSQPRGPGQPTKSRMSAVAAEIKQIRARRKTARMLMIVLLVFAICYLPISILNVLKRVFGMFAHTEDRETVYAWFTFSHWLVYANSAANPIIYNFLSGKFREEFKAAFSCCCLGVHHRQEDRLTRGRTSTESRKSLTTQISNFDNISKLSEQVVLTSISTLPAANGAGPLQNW

Consider `Cc1nc(N2CC3CN(C(=O)c4ccccc4-c4ncn(C)n4)CC3C2)ncc1F` (stereo not drawn) [Example 312, 2-(5-Fluoro-4-methylpyrimidin-2-yl)-5-{[2-(1-methyl-1H-1,2,4-triazol-3-yl)phenyl]carbonyl}octahydropyrrolo[3,4-c]pyrrole], for which the Kb was found to be 11 nM.

With `COc1ccc(-n2nccn2)c(C(=O)N2CC3CN(c4nc(C)c(C)c(C)n4)CC3C2)c1` (stereo not drawn) [Example 241, (5-Methoxy-2-(2H-1,2,3-triazol-2-yl)phenyl)(5-(4,5,6-trimethylpyrimidin-2-yl)hexahydropyrrolo[3,4-c]pyrrol-2(1H)-yl)methanone], the Kb worked out at 7 nM.

As to `COc1cc(N2CC3CN(C(=O)c4c(F)cccc4-n4nccn4)CC3C2)nc(N(C)C)n1` (stereo not drawn) [Example 1, 4-[5-{[2-Fluoro-6-(2H-1,2,3-triazol-2-yl)phenyl]carbonyl}hexahydropyrrolo[3,4-c]pyrrol-2(1H)-yl]-6-methoxy-N,N-dimethylpyrimidin-2-amine], the Kb came out at 10 nM.

For `Cc1cc(C)nc(N2CC3CN(C(=O)c4sccc4-c4ccccc4)CC3C2)n1` (stereo not drawn) [Example 12, 2-(4,6-Dimethylpyrimidin-2-yl)-5-[(3-phenylthiophen-2-yl)carbonyl]octahydropyrrolo[3,4-c]pyrrole], the Kb was 32 nM.

Take `Cc1cc(C)nc(N2CC3CN(C(=O)c4ccccc4-c4ccccc4)CC3C2)n1` (stereo not drawn) [Example 44, 2-(Biphenyl-2-ylcarbonyl)-5-(4,6-dimethylpyrimidin-2-yl)octahydropyrrolo[3,4-c]pyrrole]: the Kb is 63 nM.

In the case of `COc1ccc(C(=O)N2CC3CN(c4nc5ccc(Cl)cc5s4)CC3C2)c(OC)c1` (stereo not drawn) [Example 163, 6-Chloro-2-{5-[(2,4-dimethoxyphenyl)carbonyl]hexahydropyrrolo[3,4-c]pyrrol-2(1H)-yl}-1,3-benzothiazole], the Kb came out at 501 nM.

As for `Cc1cc(C)nc(N2CC3CN(C(=O)c4ccc(F)cc4-c4ncccn4)CC3C2)n1` (stereo not drawn) [Example 231, (5-(4,6-Dimethylpyrimidin-2-yl)hexahydropyrrolo[3,4-c]pyrrol-2(1H)-yl)(4-fluoro-2-(pyrimidin-2-yl)phenyl)methanone], the Kb is 7 nM.

Consider `Cc1cc(N2CC3CN(C(=O)c4c(F)cccc4-n4nccn4)CC3C2)nc(C(F)(F)F)n1` (stereo not drawn) [Example 98, 2-{[2-Fluoro-6-(2H-1,2,3-triazol-2-yl)phenyl]carbonyl}-5-[6-methyl-2-(trifluoromethyl)pyrimidin-4-yl]octahydropyrrolo[3,4-c]pyrrole], for which the Kb came to 10 nM.

Turning to `COc1cc(OC)nc(N2CC3CN(C(=O)c4cc(C)ccc4-n4nccn4)CC3C2)n1` (stereo not drawn) [Example 129, 2-(4,6-Dimethoxypyrimidin-2-yl)-5-{[5-methyl-2-(2H-1,2,3-triazol-2-yl)phenyl]carbonyl}octahydropyrrolo[3,4-c]pyrrole], the Kb was found to be 100 nM.

Turning to `Cc1ccc(-c2ncccn2)c(C(=O)N2CC3CN(c4cc(C)nc(C(F)(F)F)n4)CC3C2)c1` (stereo not drawn) [Example 112, 2-[(5-Methyl-2-pyrimidin-2-ylphenyl)carbonyl]-5-[6-methyl-2-(trifluoromethyl)pyrimidin-4-yl]octahydropyrrolo[3,4-c]pyrrole], the Kb came out at 20 nM.

Consider `Cc1cc(C)nc(N2CC3CN(C(=O)c4ccccc4-c4nnc[nH]4)CC3C2)n1` (stereo not drawn) [Example 14, 2-(4,6-Dimethylpyrimidin-2-yl)-5-{[2-(1H-1,2,4-triazol-5-yl)phenyl]carbonyl}octahydro-pyrrolo[3,4-c]pyrrole], for which the Kb came to 9 nM.

Consider `O=C(c1ccccc1-c1cccs1)N1CC2CN(c3cnc4ccccc4n3)CC2C1` (stereo not drawn) [Example 19, 2-{5-[(2-Thiophen-2-ylphenyl)carbonyl]hexahydropyrrolo[3,4-c]pyrrol-2(1H)-yl}quinoxaline], for which the Kb was 31 nM.

Regarding `Cc1cc(C)nc(N2CC3CN(C(=O)c4cccc5ccccc45)CC3C2)n1` (stereo not drawn) [Example 93, 2-(4,6-Dimethylpyrimidin-2-yl)-5-(naphthalen-1-ylcarbonyl)octahydropyrrolo[3,4-c]pyrrole], the Kb was 40 nM.

On to `COc1cc(OC)nc(N2CC3CN(C(=O)c4ccccc4-c4cccs4)CC3C2)n1` (stereo not drawn) [Example 138, 2-(4,6-Dimethoxypyrimidin-2-yl)-5-[(2-thiophen-2-ylphenyl)carbonyl]octahydro pyrrolo[3,4-c]pyrrole], for which the Kb is 40 nM.

For `O=C(c1ccccc1-c1nnc[nH]1)N1CC2CN(c3cnc4ccccc4n3)CC2C1` (stereo not drawn) [Example 85, 2-[5-{[2-(4H-1,2,4-Triazol-3-yl)phenyl]carbonyl}hexahydropyrrolo[3,4-c]pyrrol-2(1H)-yl]quinoxaline], the Kb was found to be 63 nM.

Take `Cc1ccc(-c2ncccn2)c(C(=O)N2CC3CN(c4cc(C(F)(F)F)nc(N(C)C)n4)CC3C2)c1` (stereo not drawn) [Example 108, N,N-Dimethyl-4-{5-[(5-methyl-2-pyrimidin-2-ylphenyl)carbonyl]hexahydropyrrolo[3,4-c]pyrrol-2(1H)-yl}-6-(trifluoromethyl)pyrimidin-2-amine]: the Kb was found to be 25 nM.

In the case of `CCOc1ccccc1C(=O)N1CC2CN(c3nc(C)cc(C)n3)CC2C1` (stereo not drawn) [Example 88, 2-(4,6-Dimethylpyrimidin-2-yl)-5-[(2-ethoxyphenyl)carbonyl]octahydropyrrolo[3,4-c]pyrrole], the Kb is 25 nM.

In the case of `O=C(c1ccccc1-c1cccs1)N1CC2CN(c3nc4ccccc4o3)CC2C1` (stereo not drawn) [Example 139, 2-{5-[(2-Thiophen-2-ylphenyl)carbonyl]hexahydropyrrolo[3,4-c]pyrrol-2(1H)-yl}-1,3-benzoxazole], the Kb amounted to 63 nM.

Turning to `O=C(c1ccccc1-n1nccn1)N1CC2CN(c3nc4ccccc4o3)CC2C1` (stereo not drawn) [Example 144, 2-[5-{[2-(2H-1,2,3-Triazol-2-yl)phenyl]carbonyl}hexahydropyrrolo[3,4-c]pyrrol-2(1H)-yl]-1,3-benzoxazole], the Kb came to 63 nM.

With `COc1cc(OC)nc(N2CC3CN(C(=O)c4ccccc4-n4nccn4)CC3C2)n1` (stereo not drawn) [Example 84, 2-(4,6-Dimethoxypyrimidin-2-yl)-5-{[2-(2H-1,2,3-triazol-2-yl)phenyl]carbonyl}octahydropyrrolo[3,4-c]pyrrole], the Kb was determined as 25 nM.

Turning to `CCOc1ccc2ccccc2c1C(=O)N1CC2CN(c3nccc(OC)n3)CC2C1` (stereo not drawn) [Example 56, 2-[(2-Ethoxynaphthalen-1-yl)carbonyl]-5-(4-methoxypyrimidin-2-yl)octahydropyrrolo[3,4-c]pyrrole], the Kb was determined as 40 nM.

Take `Cc1cc(C)nc(N2CC3CN(C(=O)c4cccc(F)c4-c4ccccn4)CC3C2)n1` (stereo not drawn) [Example 367, (5-(4,6-Dimethylpyrimidin-2-yl)hexahydropyrrolo[3,4-c]pyrrol-2(1H)-yl)(3-fluoro-2-(pyridin-2-yl)phenyl)methanone]: the Kb was found to be 3 nM.

As to `CN(C)c1cc(N2CC3CN(C(=O)c4cc(F)ccc4-n4nccn4)CC3C2)nc(C(F)(F)F)n1` (stereo not drawn) [Example 9, 6-[5-{[5-Fluoro-2-(2H-1,2,3-triazol-2-yl)phenyl]carbonyl}hexahydropyrrolo[3,4-c]pyrrol-2(1H)-yl]-N,N-dimethyl-2-(trifluoromethyl)pyrimidin-4-amine], the Kb was determined as 56 nM.

On to `CCOc1ccc2ccccc2c1C(=O)N1CC2CN(c3nccc(-c4ccccc4)n3)CC2C1` (stereo not drawn) [Example 126, 2-[(2-Ethoxynaphthalen-1-yl)carbonyl]-5-(4-phenylpyrimidin-2-yl)octahydro pyrrolo[3,4-c]pyrrole], for which the Kb stood at 100 nM.

The values above are taken from patent US9586962B2, “Disubstituted octahydropyrrolo [3,4-C] pyrroles as orexin receptor modulators” (Janssen Pharmaceutica NV, priority 2011, dated 2017).
